# Source: PMC8480901 (PLoS ONE, 2021)
# Several values for one entry are separate records, joined by “and”; a condition that tells them apart may be missing. Identical values can stand only once.
# Tested on: human PBMCs
# Assay: LPS-induced cytokine and chemokine levels in human PBMC supernatant (Luminex, ELISA)
# Assay type: cell-based
# Conditions: for TNF-α [pg/mL], Mean / TNF-α [pg/mL], individual value / GM-CSF % reduction / GM-CSF [pg/mL], Mean / GM-CSF [pg/mL], individual value / IL-1β % reduction / IL-1β [pg/mL], Mean / IL-1β [pg/mL], individual value / IL-6 % reduction / IL-6 [pg/mL], Mean / IL-6 [pg/mL], individual value / IL-8 % reduction / IL-8 [pg/mL], Mean / IL-8 [pg/mL], individual value / TNF-α % reduction: LPS-stimulated human PBMC supernatant
structure (smiles),measurement,setting,value
CC[C@H]1OC(=O)[C@H](C)[C@@H](O[C@H]2C[C@@](C)(OC)[C@@H](O)[C@H](C)O2)[C@H](C)[C@@H](O[C@@H]2O[C@H](C)C[C@H](N(C)C)[C@H]2O)[C@](C)(O)C[C@@H](C)CN(C)[C@H](C)[C@@H](O)[C@]1(C)O [Azithromycin],"TNF-α [pg/mL], Mean",0.03 µM,11102 pg/mL
same,"TNF-α [pg/mL], individual value",0.03 µM,10517 pg/mL and 11687 pg/mL
same,GM-CSF % reduction,0.1 µM,8%
same,"GM-CSF [pg/mL], Mean",0.1 µM,606 pg/mL
same,"GM-CSF [pg/mL], individual value",0.1 µM,616 pg/mL and 597 pg/mL
same,IL-1β % reduction,0.1 µM,7%
same,"IL-1β [pg/mL], Mean",0.1 µM,11909 pg/mL
same,"IL-1β [pg/mL], individual value",0.1 µM,12184 pg/mL and 11633 pg/mL
same,IL-6 % reduction,0.1 µM,10%
same,"IL-6 [pg/mL], Mean",0.1 µM,31536 pg/mL
same,"IL-6 [pg/mL], individual value",0.1 µM,30929 pg/mL and 32144 pg/mL
same,IL-8 % reduction,0.1 µM,-3.72%
same,"IL-8 [pg/mL], Mean",0.1 µM,3056 pg/mL
same,"IL-8 [pg/mL], individual value",0.1 µM,3040 pg/mL and 3071 pg/mL
same,TNF-α % reduction,0.1 µM,8%
same,"TNF-α [pg/mL], Mean",0.1 µM,8220 pg/mL
same,"TNF-α [pg/mL], individual value",0.1 µM,7335 pg/mL and 9106 pg/mL
same,GM-CSF % reduction,0.3 µM,3.39%
same,"GM-CSF [pg/mL], Mean",0.3 µM,635 pg/mL
same,"GM-CSF [pg/mL], individual value",0.3 µM,650 pg/mL and 620 pg/mL
same,IL-1β % reduction,0.3 µM,5%
same,"IL-1β [pg/mL], Mean",0.3 µM,12146 pg/mL
same,"IL-1β [pg/mL], individual value",0.3 µM,12820 pg/mL and 11473 pg/mL
same,IL-6 % reduction,0.3 µM,8%
same,"IL-6 [pg/mL], Mean",0.3 µM,32119 pg/mL
same,"IL-6 [pg/mL], individual value",0.3 µM,32538 pg/mL and 31700 pg/mL
same,IL-8 % reduction,0.3 µM,-0.427%
same,"IL-8 [pg/mL], Mean",0.3 µM,3002 pg/mL
same,"IL-8 [pg/mL], individual value",0.3 µM,2940 pg/mL and 3064 pg/mL
same,TNF-α % reduction,0.3 µM,8%
same,"TNF-α [pg/mL], Mean",0.3 µM,8210 pg/mL
same,"TNF-α [pg/mL], individual value",0.3 µM,7975 pg/mL and 8445 pg/mL
same,GM-CSF % reduction,1 µM,6.38%
same,"GM-CSF [pg/mL], Mean",1 µM,616 pg/mL
same,"GM-CSF [pg/mL], individual value",1 µM,634 pg/mL and 597 pg/mL
same,IL-1β % reduction,1 µM,4%
same,"IL-1β [pg/mL], Mean",1 µM,12252 pg/mL
same,"IL-1β [pg/mL], individual value",1 µM,12213 pg/mL and 12291 pg/mL
same,IL-6 % reduction,1 µM,-4.52%
same,"IL-6 [pg/mL], Mean",1 µM,36486 pg/mL
same,"IL-6 [pg/mL], individual value",1 µM,36508 pg/mL and 36463 pg/mL
same,IL-8 % reduction,1 µM,0.166%
same,"IL-8 [pg/mL], Mean",1 µM,2992 pg/mL
same,"IL-8 [pg/mL], individual value",1 µM,2945 pg/mL and 3040 pg/mL
same,TNF-α % reduction,1 µM,-33%
same,"TNF-α [pg/mL], Mean",1 µM,11913 pg/mL
same,"TNF-α [pg/mL], individual value",1 µM,11577 pg/mL and 12250 pg/mL
same,GM-CSF % reduction,3 µM,-8.5%
same,"GM-CSF [pg/mL], Mean",3 µM,713 pg/mL
same,"GM-CSF [pg/mL], individual value",3 µM,735 pg/mL and 692 pg/mL
same,IL-1β % reduction,3 µM,-0.234%
same,"IL-1β [pg/mL], Mean",3 µM,12815 pg/mL
same,"IL-1β [pg/mL], individual value",3 µM,12810 pg/mL and 12820 pg/mL
same,IL-6 % reduction,3 µM,4%
same,"IL-6 [pg/mL], Mean",3 µM,33458 pg/mL
same,"IL-6 [pg/mL], individual value",3 µM,33827 pg/mL and 33090 pg/mL
same,IL-8 % reduction,3 µM,-3.25%
same,"IL-8 [pg/mL], Mean",3 µM,3048 pg/mL
same,"IL-8 [pg/mL], individual value",3 µM,3040 pg/mL and 3056 pg/mL
same,TNF-α % reduction,3 µM,-13%
same,"TNF-α [pg/mL], Mean",3 µM,10076 pg/mL
same,"TNF-α [pg/mL], individual value",3 µM,10741 pg/mL and 9410 pg/mL
same,GM-CSF % reduction,10 µM,-18%
same,"GM-CSF [pg/mL], Mean",10 µM,778 pg/mL
same,"GM-CSF [pg/mL], individual value",10 µM,790 pg/mL and 767 pg/mL
same,IL-1β % reduction,10 µM,6%
same,"IL-1β [pg/mL], Mean",10 µM,12046 pg/mL
same,"IL-1β [pg/mL], individual value",10 µM,12362 pg/mL and 11731 pg/mL
same,IL-6 % reduction,10 µM,4.69%
same,"IL-6 [pg/mL], Mean",10 µM,33270 pg/mL
same,"IL-6 [pg/mL], individual value",10 µM,35180 pg/mL and 31360 pg/mL
same,IL-8 % reduction,10 µM,7.45%
same,"IL-8 [pg/mL], Mean",10 µM,2874 pg/mL
same,"IL-8 [pg/mL], individual value",10 µM,2884 pg/mL and 2864 pg/mL
same,TNF-α % reduction,10 µM,-22%
same,"TNF-α [pg/mL], Mean",10 µM,10907 pg/mL
same,"TNF-α [pg/mL], individual value",10 µM,11897 pg/mL and 9917 pg/mL
same,GM-CSF % reduction,30 µM,-64%
same,"GM-CSF [pg/mL], Mean",30 µM,1076 pg/mL
same,"GM-CSF [pg/mL], individual value",30 µM,1120 pg/mL and 1032 pg/mL
same,IL-1β % reduction,30 µM,22%
same,"IL-1β [pg/mL], Mean",30 µM,10027 pg/mL
same,"IL-1β [pg/mL], individual value",30 µM,10517 pg/mL and 9538 pg/mL
same,IL-6 % reduction,30 µM,2.66%
same,"IL-6 [pg/mL], Mean",30 µM,33980 pg/mL
same,"IL-6 [pg/mL], individual value",30 µM,33792 pg/mL and 34168 pg/mL
same,IL-8 % reduction,30 µM,5%
same,"IL-8 [pg/mL], Mean",30 µM,2917 pg/mL
same,"IL-8 [pg/mL], individual value",30 µM,2925 pg/mL and 2908 pg/mL
same,TNF-α % reduction,30 µM,-21%
same,"TNF-α [pg/mL], Mean",30 µM,10839 pg/mL
same,"TNF-α [pg/mL], individual value",30 µM,10668 pg/mL and 11009 pg/mL
same,GM-CSF % reduction,100 µM,-161%
same,"GM-CSF [pg/mL], Mean",100 µM,1715 pg/mL
same,"GM-CSF [pg/mL], individual value",100 µM,1713 pg/mL and 1717 pg/mL
same,IL-1β % reduction,100 µM,51%
same,"IL-1β [pg/mL], Mean",100 µM,6242 pg/mL
same,"IL-1β [pg/mL], individual value",100 µM,5956 pg/mL and 6528 pg/mL
same,IL-6 % reduction,100 µM,23%
same,"IL-6 [pg/mL], Mean",100 µM,27053 pg/mL
same,"IL-6 [pg/mL], individual value",100 µM,26301 pg/mL and 27804 pg/mL
same,"IL-8 [pg/mL], Mean",100 µM,2975 pg/mL
same,"IL-8 [pg/mL], individual value",100 µM,2977 pg/mL and 2972 pg/mL
same,TNF-α % reduction,100 µM,17%
same,"TNF-α [pg/mL], Mean",100 µM,7409 pg/mL
same,"TNF-α [pg/mL], individual value",100 µM,6229 pg/mL and 8589 pg/mL
same,"levels of the measured LPS-induced cytokines, chemokines, or MMP-9 in supernatants","human PBMCs, concentrations tested (100 μM not shown)",little to no reduction
